Measured values from patent US8871934B2, “Fluorene compound and pharmaceutical use thereof” (Japan Tobacco Inc., priority 2008, dated 2014).
Read-outs that look alike come from different tables or passages of the source.

Molecular target: human PDHK2 (hPDHK2) (Homo sapiens (Human), UniProt Q15119)
Assay: Inhibitory action of PDHK activity in vitro (kinase reaction, residual PDH activity measured)
Format: biochemical
[1] = PDHK inhibitory activity, class symbol of IC50
[2] = read-out: PDHK inhibitory activity IC50

Row | Structure (SMILES) | IC50 [1] | IC50 [2]
1 | NC(=O)c1ccccc1-c1ccc2c(c1)C(O)(C(F)(F)F)c1ccccc1-2 (stereo not drawn) [compound 182] | > 1000 nM | > 10000 nM
2 | CNC(=O)c1ccccc1-c1ccc2c(c1)C(O)(C(F)(F)F)c1ccccc1-2 (stereo not drawn) [compound 183] | > 1000 nM | > 10000 nM
3 | CN(C)C(=O)c1ccccc1-c1ccc2c(c1)C(O)(C(F)(F)F)c1ccccc1-2 (stereo not drawn) [compound 184] | > 1000 nM | > 10000 nM
4 | OC1(C(F)(F)F)c2ccccc2-c2c(Cl)cc(-c3ccncc3)cc21 (stereo not drawn) [compound 185] | < 100 nM | 53 nM
5 | CN(c1ccccc1)c1ccc2c(c1)C(O)(C(F)(F)F)c1ccccc1-2 (stereo not drawn) [compound 186] | > 1000 nM | 5910 nM
6 | OC1(C(F)(F)F)c2ccccc2-c2ccc(Oc3ccccc3)cc21 (stereo not drawn) [compound 187] | > 1000 nM | 2480 nM
7 | O=C(O)c1ccc(-c2ccc3c(c2)C(O)(C(F)(F)F)c2ccccc2-3)cc1 (stereo not drawn) [compound 188] | 100 to 1000 nM | 383 nM
8 | OCc1ccccc1-c1ccc2c(c1)C(O)(C(F)(F)F)c1ccccc1-2 (stereo not drawn) [compound 189] | > 1000 nM | 6000 nM
9 | CC(=O)Nc1ccccc1-c1ccc2c(c1)C(O)(C(F)(F)F)c1ccccc1-2 (stereo not drawn) [compound 190] | > 1000 nM | > 10000 nM
10 | CNC(=O)c1ccc(-c2ccc3c(c2)C(O)(C(F)(F)F)c2ccccc2-3)cc1 (stereo not drawn) [compound 191] | 100 to 1000 nM | 216 nM
11 | CN(C)C(=O)c1ccc(-c2ccc3c(c2)C(O)(C(F)(F)F)c2ccccc2-3)cc1 (stereo not drawn) [compound 192] | 100 to 1000 nM | 182 nM
12 | Nc1ccc(-c2ccc3c(c2)C(O)(C(F)(F)F)c2ccccc2-3)cc1 (stereo not drawn) [compound 193] | 100 to 1000 nM | 560 nM
13 | OCc1ccc(-c2ccc3c(c2)C(O)(C(F)(F)F)c2ccccc2-3)cc1 (stereo not drawn) [compound 194] | 100 to 1000 nM | 368 nM
14 | O=C(c1ccc2c(c1)C(O)(C(F)(F)F)c1ccccc1-2)N1CCCC1CO (stereo not drawn) [compound 195] | > 1000 nM | 5480 nM
15 | Cc1cnc2c(c1)C(O)(C(F)(F)F)c1ccccc1-2 (stereo not drawn) [compound 196] | 100 to 1000 nM | 475 nM
16 | CC(=O)Nc1ccc(-c2ccc3c(c2)C(O)(C(F)(F)F)c2ccccc2-3)cc1 (stereo not drawn) [compound 197] | 100 to 1000 nM | 298 nM
17 | Cc1cc(-c2ccc3c(c2)C(O)(C(F)(F)F)c2ccccc2-3)ccn1 (stereo not drawn) [compound 198] | 100 to 1000 nM | 126 nM
18 | NC(=O)c1ccc(-c2ccc3c(c2)C(O)(C(F)(F)F)c2ccccc2-3)cc1 (stereo not drawn) [compound 199] | 100 to 1000 nM | 182 nM
19 | CCN(CC)C(=O)C1CN(C(=O)c2ccc3c(c2)C(O)(C(F)(F)F)c2ccccc2-3)C1 (stereo not drawn) [compound 200] | 100 to 1000 nM | 236 nM
20 | O=C(c1ccc2c(c1)C(O)(C(F)(F)F)c1ccccc1-2)N1CC(C(=O)N2CCCC2)C1 (stereo not drawn) [compound 201] | 100 to 1000 nM | 162 nM
21 | O=C(c1ccc2c(c1)C(O)(C(F)(F)F)c1ccccc1-2)N1CC(C(=O)N2CCCCC2)C1 (stereo not drawn) [compound 202] | 100 to 1000 nM | 247 nM
22 | O=C(c1ccc2c(c1)C(O)(C(F)(F)F)c1ccccc1-2)N1CC(C(=O)N2CCC(O)CC2)C1 (stereo not drawn) [compound 203] | 100 to 1000 nM | 423 nM
23 | Cc1ccncc1-c1cccc2c1-c1ccccc1C2(O)C(F)(F)F (stereo not drawn) [compound 204] | > 1000 nM | > 10000 nM

Row | Structure (SMILES) | IC50 [1] | IC50 [2]
24 | Oc1ccc(-c2ccc3c(c2)C(O)(C(F)(F)F)c2ccccc2-3)cc1 (stereo not drawn) [compound 205] | 100 to 1000 nM | 707 nM
25 | COC(=O)C1CCN(C(=O)c2ccc3c(c2)C(O)(C(F)(F)F)c2ccccc2-3)C1 (stereo not drawn) [compound 206] | > 1000 nM | 2240 nM
26 | CCC(=O)N1CCN(c2ccc3c(c2)C(O)(C(F)(F)F)c2ccccc2-3)CC1 (stereo not drawn) [compound 207] | 100 to 1000 nM | 998 nM
27 | CC(C)C(=O)N1CCN(c2ccc3c(c2)C(O)(C(F)(F)F)c2ccccc2-3)CC1 (stereo not drawn) [compound 208] | 100 to 1000 nM | 677 nM
28 | CC(C)(C)C(=O)N1CCN(c2ccc3c(c2)C(O)(C(F)(F)F)c2ccccc2-3)CC1 (stereo not drawn) [compound 209] | 100 to 1000 nM | 281 nM
29 | COC(=O)N1CCN(c2ccc3c(c2)C(O)(C(F)(F)F)c2ccccc2-3)CC1 (stereo not drawn) [compound 210] | > 1000 nM | 1330 nM
30 | CCOC(=O)N1CCN(c2ccc3c(c2)C(O)(C(F)(F)F)c2ccccc2-3)CC1 (stereo not drawn) [compound 211] | > 1000 nM | 1010 nM
31 | CC(C)OC(=O)N1CCN(c2ccc3c(c2)C(O)(C(F)(F)F)c2ccccc2-3)CC1 (stereo not drawn) [compound 212] | 100 to 1000 nM | 685 nM
32 | O=C(c1cnc2c(c1)C(O)(C(F)(F)F)c1ccccc1-2)N1CCC1 (stereo not drawn) [compound 213] | 100 to 1000 nM | 173 nM
33 | N#Cc1cccc(-c2ccc3c(c2)C(O)(C(F)(F)F)c2ccccc2-3)c1 (stereo not drawn) [compound 214] | 100 to 1000 nM | 345 nM
34 | O=C(c1ccc2c(c1)C(O)(C(F)(F)F)c1ccccc1-2)N1CCC(O)C1 (stereo not drawn) [compound 215] | > 1000 nM | 4600 nM
35 | CN(C)C1CCN(C(=O)c2ccc3c(c2)C(O)(C(F)(F)F)c2ccccc2-3)C1 (stereo not drawn) [compound 216] | > 1000 nM | 2560 nM
36 | O=C(O)C1CCN(C(=O)c2ccc3c(c2)C(O)(C(F)(F)F)c2ccccc2-3)C1 (stereo not drawn) [compound 217] | > 1000 nM | 5330 nM
37 | COC(=O)C1CCN(c2ccc3c(c2)C(O)(C(F)(F)F)c2ccccc2-3)CC1 (stereo not drawn) [compound 218] | > 1000 nM | 1840 nM
38 | COC(=O)c1cccc2c1-c1ccc(F)cc1C2(O)C(F)(F)F (stereo not drawn) [compound 219] | > 1000 nM | > 10000 nM
39 | COC(=O)c1cccc2c1-c1cc(F)ccc1C2(O)C(F)(F)F (stereo not drawn) [compound 220] | 100 to 1000 nM | 488 nM
40 | COC(=O)c1ccc(F)c2c1-c1ccccc1C2(O)C(F)(F)F (stereo not drawn) [compound 221] | > 1000 nM | > 10000 nM
41 | O=C(O)C1CCN(c2ccc3c(c2)C(O)(C(F)(F)F)c2ccccc2-3)CC1 (stereo not drawn) [compound 222] | > 1000 nM | 5390 nM
42 | CCOC(=O)C1CCN(c2ccc3c(c2)C(O)(C(F)(F)F)c2ccccc2-3)CC1 (stereo not drawn) [compound 223] | > 1000 nM | 2330 nM
43 | N#Cc1ccc(-c2ccc3c(c2)C(O)(C(F)(F)F)c2ccccc2-3)cc1 (stereo not drawn) [compound 224] | 100 to 1000 nM | 214 nM
44 | O=C(c1ccc2c(c1)C(O)(C(F)(F)F)c1ccccc1-2)N1CCC(CO)C1 (stereo not drawn) [compound 225] | 100 to 1000 nM | 619 nM
45 | NC(=O)C1CCN(C(=O)c2ccc3c(c2)C(O)(C(F)(F)F)c2ccccc2-3)C1 (stereo not drawn) [compound 226] | > 1000 nM | 1140 nM
46 | CNC(=O)C1CCN(C(=O)c2ccc3c(c2)C(O)(C(F)(F)F)c2ccccc2-3)C1 (stereo not drawn) [compound 227] | > 1000 nM | 1050 nM

Row | Structure (SMILES) | IC50 [1] | IC50 [2]
47 | CNC1CCN(C(=O)c2ccc3c(c2)C(O)(C(F)(F)F)c2ccccc2-3)C1 (stereo not drawn) [compound 228] | > 1000 nM | 2190 nM
48 | CN(C)C(=O)C1CCN(C(=O)c2ccc3c(c2)C(O)(C(F)(F)F)c2ccccc2-3)C1 (stereo not drawn) [compound 229] | 100 to 1000 nM | 552 nM
49 | NC(=O)C1CCN(c2ccc3c(c2)C(O)(C(F)(F)F)c2ccccc2-3)CC1 (stereo not drawn) [compound 230] | > 1000 nM | 3710 nM
50 | CNC(=O)C1CCN(c2ccc3c(c2)C(O)(C(F)(F)F)c2ccccc2-3)CC1 (stereo not drawn) [compound 231] | > 1000 nM | 3610 nM
51 | CN(C)C(=O)C1CCN(c2ccc3c(c2)C(O)(C(F)(F)F)c2ccccc2-3)CC1 (stereo not drawn) [compound 232] | > 1000 nM | 1990 nM
52 | CCOC(=O)c1ccc(-c2cc(Cl)c3c(c2)C(O)(C(F)(F)F)c2ccccc2-3)cc1 (stereo not drawn) [compound 233] | 100 to 1000 nM | 142 nM
53 | O=C(O)c1ccc(-c2cc(Cl)c3c(c2)C(O)(C(F)(F)F)c2ccccc2-3)cc1 (stereo not drawn) [compound 234] | < 100 nM | 58 nM
54 | COc1nc2c(cc1C(=O)N1CCC1)C(O)(C(F)(F)F)c1ccccc1-2 (stereo not drawn) [compound 235] | 100 to 1000 nM | 803 nM
55 | COC(=O)c1ccc(-c2ccc3c(c2)C(O)(C(F)(F)F)c2ccccc2-3)cc1Cl (stereo not drawn) [compound 236] | 100 to 1000 nM | 355 nM
56 | O=C(O)c1ccc(-c2ccc3c(c2)C(O)(C(F)(F)F)c2ccccc2-3)cc1Cl (stereo not drawn) [compound 238] | 100 to 1000 nM | 252 nM
57 | NC(=O)c1ccc(-c2ccc3c(c2)C(O)(C(F)(F)F)c2ccccc2-3)cc1Cl (stereo not drawn) [compound 239] | 100 to 1000 nM | 178 nM
58 | CNC(=O)c1ccc(-c2ccc3c(c2)C(O)(C(F)(F)F)c2ccccc2-3)cc1Cl (stereo not drawn) [compound 240] | 100 to 1000 nM | 149 nM
59 | CN(C)C(=O)c1ccc(-c2ccc3c(c2)C(O)(C(F)(F)F)c2ccccc2-3)cc1Cl (stereo not drawn) [compound 241] | < 100 nM | 98 nM
60 | O=C(c1cc(-c2cccnc2)c2c(c1)C(O)(C(F)(F)F)c1ccccc1-2)N1CCC1 (stereo not drawn) [compound 242] | < 100 nM | 86 nM
61 | OC1(C(F)(F)F)c2ccccc2-c2c(-c3cccnc3)cc(Cl)cc21 (stereo not drawn) [compound 243] | < 100 nM | 75 nM
62 | OC1(C(F)(F)F)c2ccccc2-c2ccc(C3CC3)cc21 (stereo not drawn) [compound 244] | > 1000 nM | 2930 nM
63 | OC1(C(F)(F)F)c2ccccc2-c2ccc(-c3cnco3)cc21 (stereo not drawn) [compound 245] | 100 to 1000 nM | 190 nM
64 | CC(=O)N(C)C1CCN(C(=O)c2ccc3c(c2)C(O)(C(F)(F)F)c2ccccc2-3)C1 (stereo not drawn) [compound 246] | 100 to 1000 nM | 809 nM
65 | Cc1noc(-c2ccc3c(c2)C(O)(C(F)(F)F)c2ccccc2-3)n1 (stereo not drawn) [compound 247] | 100 to 1000 nM | 547 nM
66 | C/C=C/c1ccc2c(c1)C(O)(C(F)(F)F)c1ccccc1-2 (stereo not drawn) [compound 248] | > 1000 nM | 1020 nM
67 | CCCCOc1ccc2c(c1)C(O)(C(F)(F)F)c1ccccc1-2 (stereo not drawn) [compound 249] | 100 to 1000 nM | 719 nM
68 | Cn1nnc(-c2cccc3c2-c2ccccc2C3(O)C(F)(F)F)n1 (stereo not drawn) [compound 250] | > 1000 nM | 1610 nM
69 | Cn1nnnc1-c1cccc2c1-c1ccccc1C2(O)C(F)(F)F (stereo not drawn) [compound 251] | > 1000 nM | > 10000 nM
